Reference: article PMC4805777 (International Journal for Parasitology: Drugs and Drug …, 2016)

Test system: T. cruzi (Strain H1)
Assay: T. cruzi in vivo assay, second study
Parameters: species or system Trypanosoma cruzi
Settings: BALB/c mice, 100 mg/kg/day orally, 21 days (method: 20 days)

SMILES: O=C(Cn1ccnc1[N+](=O)[O-])NCc1ccccc1 [Benznidazole]
- parasitemia, in words: undetectable
- survival, in words (50-day study): all the mice survived
